IC50 data for 22 compounds are collected here from US9884063B2, “Amido-substituted azole compounds” (Bayer Pharma Aktiengesellschaft, priority 2014, dated 2018).

The target of this assay is T1, TNKS1 (Homo sapiens, UniProt O95271).
T1 sequence (O95271 1-1327): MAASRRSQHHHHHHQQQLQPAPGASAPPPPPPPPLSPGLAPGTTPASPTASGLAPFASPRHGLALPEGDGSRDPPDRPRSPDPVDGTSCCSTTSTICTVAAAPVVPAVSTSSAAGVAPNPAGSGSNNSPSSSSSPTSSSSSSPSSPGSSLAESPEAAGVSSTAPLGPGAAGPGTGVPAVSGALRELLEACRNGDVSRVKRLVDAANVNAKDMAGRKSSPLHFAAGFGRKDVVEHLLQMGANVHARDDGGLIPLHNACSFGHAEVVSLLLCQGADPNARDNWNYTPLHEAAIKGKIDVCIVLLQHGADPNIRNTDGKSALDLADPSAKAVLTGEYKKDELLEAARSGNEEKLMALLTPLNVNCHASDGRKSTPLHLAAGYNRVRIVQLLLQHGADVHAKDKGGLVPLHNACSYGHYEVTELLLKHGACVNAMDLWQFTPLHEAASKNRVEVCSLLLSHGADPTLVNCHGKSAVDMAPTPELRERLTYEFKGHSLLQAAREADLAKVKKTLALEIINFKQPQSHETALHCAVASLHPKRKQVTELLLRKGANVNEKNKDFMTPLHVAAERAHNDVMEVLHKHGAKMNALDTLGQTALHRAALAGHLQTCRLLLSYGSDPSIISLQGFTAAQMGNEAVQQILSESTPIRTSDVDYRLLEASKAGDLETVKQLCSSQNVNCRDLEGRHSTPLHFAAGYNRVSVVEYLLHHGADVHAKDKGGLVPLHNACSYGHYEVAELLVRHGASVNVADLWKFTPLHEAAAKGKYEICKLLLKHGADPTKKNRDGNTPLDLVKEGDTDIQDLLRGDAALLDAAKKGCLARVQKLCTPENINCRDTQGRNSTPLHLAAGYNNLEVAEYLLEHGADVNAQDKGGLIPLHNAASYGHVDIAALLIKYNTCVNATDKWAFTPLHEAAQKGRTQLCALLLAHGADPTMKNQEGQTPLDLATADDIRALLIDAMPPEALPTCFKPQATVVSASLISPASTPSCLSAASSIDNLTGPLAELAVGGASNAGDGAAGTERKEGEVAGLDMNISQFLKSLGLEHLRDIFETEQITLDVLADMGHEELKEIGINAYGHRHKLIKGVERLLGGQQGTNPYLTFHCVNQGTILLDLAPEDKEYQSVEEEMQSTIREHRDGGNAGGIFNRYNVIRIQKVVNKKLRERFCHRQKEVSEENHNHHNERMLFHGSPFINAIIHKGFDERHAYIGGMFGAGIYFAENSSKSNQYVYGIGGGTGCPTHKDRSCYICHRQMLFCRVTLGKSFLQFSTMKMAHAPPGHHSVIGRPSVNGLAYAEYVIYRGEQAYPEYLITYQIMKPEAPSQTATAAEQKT
Nature of the assay: Modified TNKS1 Assay 2 (auto-parsylation, [3H]-NAD+ SPA). In kind it is biochemical. The conditions noted are these: 6 nM TNKS1, 96 well. The method, then: The potency of selected compounds according to the invention was assessed applying an modified in vitro inhibition assay. Here, the TNKS1 catalyzed NAD^+-dependent ribosylation of the enzyme itself (auto-parsylation) was detected using [^3H]-NAD^+ as substrate and applying the scintillation proximity assay (SPA) method to detect tritium-labeled, parsylated TNKS1. The intensity of the readout signal is proportional to the incorporated [^3H]-NAD^+. Inhibition of TNKS1 leads to a decreased incorporation of [^3H]-NAD^+ and consequently to a lower readout signal intensity. The concentration of a test compound which inhibits the enzyme activity by 50% (corresponds to half of the normed readout signal intensity) is reported as IC50.
The assay was conducted in a 96 well MTP format with the identical TNKS1 enzyme sample and NAD^+ sample as in the histone ribosylation assay with the following modifications: TNKS1 enzyme sample was diluted with a modified assay buffer (50 mM MES pH 7.0, 1 mM DTT, 0.01% Triton X-100) to a final concentration of 6 nM TNKS1 and 10×NAD^+ solution was diluted with the modified assay buffer (s. above) to a final 0.445×NAD^+ solution doped with 100 Bq/ul [^3H]-NAD^+[Catalog #NET443H050UC, Perkin Elmer, Waltham, Mass., USA]. Substrate solution (10 ul) was incubated with different test compound concentrations (2.5 ul in 10% DMSO in modified assay buffer) or control (2.5 ul 10% DMSO in modified assay buffer only) and enzyme (10 ul) over night at room temperature. Incorporated tritium was measured after addition of 50 ul SPA beads (1 mg/ml) [Catalog #RPNQ0095 20 mg/ml, Perkin Elmer, Waltham, Mass., USA; diluted 1:10 with Dulbecco's phosphate buffered saline, PBS Catalog #D8537, Sigma-Aldrich, Steinheim, Germany] and detection of the photon emission with a beta count plate reader [Wallac MicroBeta®, Perkin Elmer, Waltham, Mass., USA].

Bounds are passed on as bounds.

`CC1CCN(CCNC(=O)c2nc[nH]c2C(=O)Nc2ccc(NC(=O)c3ccc(F)cc3Cl)cc2)CC1` [Example 126, N^5-{4-[(2-chloro-4-fluorobenzoyl)amino]phenyl}-N^4-[2-(4-methylpiperidin-1-yl)ethyl]-1H-imidazole-4,5-dicarboxamide]: inhibition was half-maximal at 10 nM (IC50).
As to `CCOc1ccc(C(=O)Nc2ccc(NC(=O)c3[nH]cnc3C(=O)NC)cc2)c(Cl)c1` [Example 250, N^5-{4-[(2-chloro-4-ethoxybenzoyl)amino]phenyl}-N^4-methyl-1H-imidazole-4,5-dicarboxamide], 230 nM corresponded to half-maximal inhibition (IC50). Against the preceding compound, the IC50 is about 23-fold higher.
With `CNC(=O)c1nc[nH]c1C(=O)Nc1ccc(NC(=O)c2ccc(N(C)C)cc2Cl)cc1` [Example 4, N^5-(4-{[2-chloro-4-(dimethylamino)benzoyl]amino}phenyl)-N^4-methyl-1H-imidazole-4,5-dicarboxamide] the figure was 80 nM; with `O=C(Nc1ccc(NC(=O)c2nc[nH]c2C(=O)NCCF)cc1)c1ccccc1Cl` [Example 166, N^4-{4-[(2-chlorobenzoyl)amino]phenyl}-N^5-(2-fluoroethyl)-1H-imidazole-4,5-dicarboxamide], 240 nM.
In the case of `CNC(=O)c1nc[nH]c1C(=O)Nc1ccc(NC(=O)c2ccccc2Cl)cc1` [Example 27, N^5-{4-[(2-chlorobenzoyl)amino]phenyl}-N^4-methyl-1H-imidazole-4,5-dicarboxamide], the IC50 came to 630 nM.
`CCS(=N)(=O)c1ccc(C(=O)Nc2ccc(NC(=O)c3[nH]cnc3C(=O)NC)cc2)c(Cl)c1` (stereo not shown) [Example 255, N^5-(4-{[2-chloro-4-(S-ethylsulfonimidoyl)benzoyl]amino}phenyl)-N^4-methyl-1H-imidazole-4,5-dicarboxamide]: the IC50 is 680 nM.
With `O=C(Nc1ccc(NC(=O)c2nc[nH]c2C(=O)NCCCCN2CCCCC2)cc1)c1ccccc1Cl` [Example 189, N^4-{4-[(2-chlorobenzoyl)amino]phenyl}-N^5-[4-(piperidin-1-yl)butyl]-1H-imidazole-4,5-dicarboxamide] the figure was 220 nM; with `CNC(=O)c1nc[nH]c1C(=O)Nc1ccc(NC(=O)c2cc(OCCN3CCN(C)CC3)ccc2Cl)cc1` [Example 124, N^5-[4-({2-chloro-5-[2-(4-methylpiperazin-1-yl)ethoxy]benzoyl}amino)phenyl]-N^4-methyl-1H-imidazole-4,5-dicarboxamide], over 10000 nM; with `CC(C)(C)CNC(=O)c1[nH]cnc1C(=O)Nc1ccc(NC(=O)c2ccccc2Cl)cc1` [Example 148, N^4-{4-[(2-chlorobenzoyl)amino]phenyl}-N^5-(2,2-dimethylpropyl)-1H-imidazole-4,5-dicarboxamide], 1300 nM.
Regarding `O=C(Nc1ccc(NC(=O)c2nc[nH]c2C(=O)NCCN2CCCC(F)C2)cc1)c1ccc(F)cc1Cl` (stereo not shown) [Example 226, N^4-{4-[(2-chloro-4-fluorobenzoyl)amino]phenyl}-N^5-[2-(3-fluoropiperidin-1-yl)ethyl]-1H-imidazole-4,5-dicarboxamide], half-maximal inhibition (IC50) required 4 nM.
As for `O=C(Nc1ccc(NC(=O)c2nc[nH]c2C(=O)NC2CCOC2)cc1)c1ccc(F)cc1Cl` (stereo not shown) [Example 236, N^4-{4-[(2-chloro-4-fluorobenzoyl)amino]phenyl}-N^5-(tetrahydrofuran-3-yl)-1H-imidazole-4,5-dicarboxamide], the midpoint of inhibition, the IC50, lay at 30 nM.
In the case of `O=C(NCCN1CCCCC1)c1nc[nH]c1C(=O)Nc1ccc(NC(=O)c2c(F)cc(F)cc2Cl)cc1` [Example 119, N^5-{4-[(2-chloro-4,6-difluorobenzoyl)amino]phenyl}-N^4-[2-(piperidin-1-yl)ethyl]-1H-imidazole-4,5-dicarboxamide] it was 2 nM.
In the case of `O=C(Nc1ccc(NC(=O)c2nc[nH]c2C(=O)NCCN2CCC2)cc1)c1ccc(F)cc1` [Example 199, N^5-[2-(azetidin-1-yl)ethyl]-N^4-{4-[(4-fluorobenzoyl)amino]phenyl}-1H-imidazole-4,5-dicarboxamide], inhibition was half-maximal at 60 nM (IC50). This IC50 lies about 30-fold higher than the previous one.
Regarding `CCNC(=O)c1nc[nH]c1C(=O)Nc1ccc(NC(=O)c2ccccc2S(C)(=O)=O)cc1` [Example 257, N^4-ethyl-N^5-(4-{[2-(methylsulfonyl)benzoyl]amino}phenyl)-1H-imidazole-4,5-dicarboxamide], the IC50 was 7800 nM.
Take `O=C(Nc1ccc(NC(=O)c2ocnc2C(=O)NCCN2CCC(F)(F)CC2)cc1)c1ccc(F)cc1Cl` [Example 218, N^5-{4-[(2-chloro-4-fluorobenzoyl)amino]phenyl}-N^4-[2-(4,4-difluoropiperidin-1-yl)ethyl]-1,3-oxazole-4,5-dicarboxamide]: the IC50 came out at 70 nM. Compared with the last compound, the IC50 is about 110-fold lower.
With `CC(C)NC(=O)c1nc[nH]c1C(=O)Nc1ccc(NC(=O)c2ccc(F)cc2Cl)cc1` [Example 10, N^5-{4-[(2-chloro-4-fluorobenzoyl)amino]phenyl}-N^4-isopropyl-1H-imidazole-4,5-dicarboxamide] the figure was 290 nM.
`O=C(Nc1ccc(NC(=O)c2[nH]cnc2C(=O)NCC(F)(F)F)cc1)c1ccc(F)cc1Cl` [Example 30, N^4-{4-[(2-chloro-4-fluorobenzoyl)amino]phenyl}-N^5-(2,2,2-trifluoroethyl)-1H-imidazole-4,5-dicarboxamide] had a half-maximal inhibitory concentration (IC50) of 50 nM.
For `CNC(=O)c1nc[nH]c1C(=O)Nc1ccc(NC(=O)c2ccc(Cl)cc2Cl)cc1` [Example 9, N^5-{4-[(2,4-dichlorobenzoyl)amino]phenyl}-N^4-methyl-1H-imidazole-4,5-dicarboxamide], it took 150 nM to reach half-maximal inhibition (IC50). Compared with the last compound, the IC50 is about 3-fold higher.
Compound `CNC(=O)c1nc[nH]c1C(=O)Nc1ccc(NC(=O)c2ccc(F)cc2Cl)nc1` [Example 16, N^5-{6-[(2-chloro-4-fluorobenzoyl)amino]pyridin-3-yl}-N^4-methyl-1H-imidazole-4,5-dicarboxamide] displayed an IC50 of 30 nM.
In the case of `CNC(=O)c1nc[nH]c1C(=O)Nc1ccc(NC(=O)c2ccc(OCCN3CCN(C)CC3)cc2Cl)cc1` [Example 28, N^5-[4-({2-chloro-4-[2-(4-methylpiperazin-1-yl)ethoxy]benzoyl}amino)phenyl]-N^4-methyl-1H-imidazole-4,5-dicarboxamide] it was 60 nM; in that of `O=C(Nc1ccc(NC(=O)c2nc[nH]c2C(=O)NCCCN2CCOCC2)cc1)c1ccccc1Cl` [Example 200, N^4-{4-[(2-chlorobenzoyl)amino]phenyl}-N^5-[3-(morpholin-4-yl)propyl]-1H-imidazole-4,5-dicarboxamide], 350 nM; in that of `CC(C)(CNC(=O)c1[nH]cnc1C(=O)Nc1ccc(NC(=O)c2ccc(F)cc2)cc1)N1CCCCC1` [Example 209, N^4-{4-[(4-fluorobenzoyl)amino]phenyl}-N^5-[2-methyl-2-(piperidin-1-yl)propyl]-1H-imidazole-4,5-dicarboxamide], 400 nM.
